We go through two compounds from patent US7354954B1, “Use of GABA agonists for treatment of spastic disorders, convulsions, and epilepsy” (priority 2000, dated 2008).

Data set [1] has as its system chronic spastic SCl rat model. The data set can be described thus: Ability to walk a series of balance beams (7.7 cm to 1.7 cm) in spastic SCI rats. The data set is classed as in vivo, Sprague Dawley rats. As to conditions: for beam walking, mean: 15 micrograms per day intrathecal. As to the method: Subjects—Twenty Sprague Dawley rats with severe spinal cord injury and spasticity, which were more than ten weeks from initial weight, drop injury. […] The rats were implanted using the 2 French Fogarty balloon catheter attached to a refillable 1 cc. Pumps (ESOX Minneapolis Minn.) placed surgically in the subcutaneously between the shoulder blades one week earlier that had been effectively delivering preservative free normal saline. The ESOX pump flowed at a rate of 60 μl per day. The pump initially contained saline solution and the animals were again tested several days after pump placement for spasticity. Design—Rats were randomized to a blinded three-arm study utilizing GABAmide, baclofen and placebo in a cross over design. The pump has the advantage that the solution in the pump can be changed so that drugs can be evaluated. GABAmide was placed in the pumps and the animals were evaluated at the times specified below. Main Outcome Measures—Rats were tested weekly for levels of spasticity: 4) spasms spontaneously occur over a four minute observation period 3) spasms with light touch of the foot 2) spasms with passive movement of the foot and leg by extending the leg 1) spasms with painful stimulation—extend leg and pinch foot 0) no spasms inducible This scale was adapted for use in animals from the Ashworth score (Albright et al., Intrathecal baclofen therapy for spasticity of cerebral origin: Patient selection guidelines 1997), which has been utilized so frequently in human trials and in the clinical management of intrathecal baclofen. Meythaler et al., Arch. Phys. Med. Rehabil. […] Rats were also assessed for functional changes utilizing the BBB scoring system for motor function and for their ability to walk a series of balance beams without falling that started at 7.7 cm. and decreased in 1 cm increments to 1.7 cm. in diameter (the smallest a normal rat can easily and reliably cross). […] Differences over times were assessed via descriptive statistics, Friedman's analysis, Wilcoxon signed-rank, for nonparametric data (spasticity, BBB score and beam walking).

The nature of a further data set: Solubility in water. Type of data set: physicochemical.
For data set [2], the system named is chronic spastic SCl rat model. Nature of the data set: Tolerability of intrathecal delivery in spastic SCI rats. The data set is classed as in vivo. Here is the method:
(§1) A study on the use GABAmide was performed to compare its effectiveness to reduce spasticity and assess toxicity via intrathecal delivery in a chronic spastic SCl rat model utilizing an implantable refillable pump.
(§2) Subjects—Twenty Sprague Dawley rats with severe spinal cord injury and spasticity, which were more than ten weeks from initial weight, drop injury. […] The rats were implanted using the 2 French Fogarty balloon catheter attached to a refillable 1 cc. Pumps (ESOX Minneapolis Minn.) placed surgically in the subcutaneously between the shoulder blades one week earlier that had been effectively delivering preservative free normal saline. The ESOX pump flowed at a rate of 60 μl per day. […] The pump has the advantage that the solution in the pump can be changed so that drugs can be evaluated. GABAmide was placed in the pumps and the animals were evaluated at the times specified below. […] Rats were also assessed for functional changes utilizing the BBB scoring system for motor function and for their ability to walk a series of balance beams without falling that started at 7.7 cm. and decreased in 1 cm increments to 1.7 cm. in diameter (the smallest a normal rat can easily and reliably cross). […] Differences over times were assessed via descriptive statistics, Friedman's analysis, Wilcoxon signed-rank, for nonparametric data (spasticity, BBB score and beam walking).

The test system of data set [3] is chronic spastic SCl rat model. Nature of the data set: BBB scoring system for motor function in spastic SCI rats. The data set is classed as in vivo, Sprague Dawley rats. Here is the method:
as §2, with “day. The pump initially contained saline solution and the animals were again tested several days after pump placement for spasticity.” for “day.”

Data set [4] has as its system chronic spastic SCl rat model. The data set can be described thus: Spasticity score (scale adapted from the Ashworth score) in chronic spastic SCI rat model, intrathecal delivery by implantable pump. As to conditions: compared with baclofen. Type of data set: in vivo, Sprague Dawley rats. As to the method:
as §1, §2

The nature of a further data set: Stability in solution. Type of data set: physicochemical. The source says:
In a preferred embodiment, the compound administered to a patient or subject is the gamma-aminobutyramide, a solubility product obtained by dissolving PROGABIDE in a solvent thereby generating gamma-aminobutyramide and an insoluble ketone. The insoluble ketone (4-chlorophenyl-5-fluoro-2-hydroxyphenylmethanone) is subsequently removed by filtration leaving the pure, stable gamma-aminobutyramide.

The subject of a further data set is canine model. The conditions noted are these: 2000 μg/d for 28 days, intrathecal; cited from earlier work.
The mark [5] stands for this setting: 5 micrograms per day intrathecal, throughout the study.

Take `NCCCC(N)=O` [GABAmide, gamma-aminobutyramide]: the “change in beam walking” value in data set [1] (setting [5]) is reported as “not statistically significant change”. In addition, the solubility in water entry in “Solubility in water” is given as “soluble in water”. Also, the tolerability entry in data set [2] is given as “well tolerated”. The “change in BBB score” value in data set [3] (setting [5]) is “not statistically significant change”. For the same compound, the accommodation to spasticity entry in data set [4] is listed as “less accommodation to spasticity than baclofen”. Further, in “Stability in solution”, the stability result was “relatively stable for long periods of time”.

On to `NCC(CC(=O)O)c1ccc(Cl)cc1` (stereo not shown) [baclofen], for which the histopathology entry in the data set on canine model is reported as “no deleterious histopathology”. For the same compound, the “beam walking, mean” value in data set [1] (day five of treatment) is 6.0 cm; in data set [1] (day three, baseline 5.2 cm, p=0.01 Friedman's), 2.7 cm. The “change in BBB score” value in data set [3] (15 micrograms per day intrathecal, day five of treatment) was “not significant”.
